# Measurements published in PMC9732253, “Inhibition of the Phosphatidylinositol-3 Kinase Pathway Using Bimiralisib in Loss-of-Function NOTCH1-Mutant Head and Neck Cancer” (The Oncologist, 2022).
# Like-named read-outs stand apart in the source and are kept apart here.
# How the values were obtained:
# NOTCH1-mutant HNSCC = conditions: one heavily pretreated patient with NOTCH1-mutant HNSCC, thoracic metastases; cited from earlier work
# PI3Kα = conditions: cited from earlier work
# [1] = Phase II trial, PK analysis: pre-dose and 1 h post-dose blood levels by HPLC; format: in vivo, human; conditions: for Cmax: human, serum, 140 mg; for Trough: pre-dose
# Procedure: Blood was collected before oral dose administration and 1 hour after oral dose administration on days 1, 8, 22, 43, and 64 after the start of therapy. Bimiralisib levels were determined as previously described using high-performance liquid chromatography[8-11] by Charles River Laboratories (Ashland, Ohio). The pre-dose levels were the trough levels and post-dose levels were the assumed peak serum concentration (Cmax) values. Cmax and trough accumulation ratios were calculated by dividing each patient’s treatment day concentration by their initial available drug concentration—day 1 for Cmax and day 8 for trough. Statistical differences among groups were identified by analysis of variance using Statistica version 13.1 (TIBCO Software Inc., Palo Alto, California); P < .05 was considered statistically significant
# other protein kinases = test system: other protein kinases; set-up: method as in PMID 28829592; conditions: biochemical assays; cited from earlier work
# PI3Kβ = conditions: compared with PI3Kα and mTOR; cited from earlier work
# [2] = test system: pathway targets in tumor tissue; set-up: method as in PMID 29660598; conditions: therapeutic doses; cited from earlier work
smiles,measurement,setting,value
"Nc1cc(C(F)(F)F)c(-c2nc(N3CCOCC3)nc(N3CCOCC3)n2)cn1 [Bimiralisib, 5-(4,6-dimorpholino-1,3,5-triazin-2-yl)-4-(trifluoromethyl)pyridin-2-amine]",Duration of partial response,NOTCH1-mutant HNSCC,9 months
same,Inhibition of PI3Kα,PI3Kα,potently inhibits
same,Cmax,"[1]; oral, 140-mg dose, current study, read-out: Maximum Cmax value",0.97 µg/mL
same,Cmax,"[1]; po, median, Day 1 (n = 6), 1 hour after 140 mg oral dose, read-out: C max",0.575 µg/mL
same,Cmax,"[1]; po, median, Day 8 (n = 6), 1 hour after oral dose, read-out: C max",0.574 µg/mL
same,Cmax,"[1]; po, median, Day 22 (n = 5), 1 hour after oral dose, read-out: C max",0.691 µg/mL
same,Cmax,"[1]; po, median, Day 43 (n = 4), 1 hour after oral dose, read-out: C max",0.525 µg/mL
same,Cmax,"[1]; po, median, Day 64 (n = 5), 1 hour after oral dose, read-out: C max",0.546 µg/mL
same,Cmax accumulation,[1]; intermittent dosing regimen,not observed
same,Trough,"[1]; median, Day 8 (n = 6)",62 ng/mL
same,C max accumulation ratio,"[1]; median, Day 8 vs day 1",0.78
same,Trough,"[1]; median, Day 22 (n = 5)",101 ng/mL
same,C max accumulation ratio,"[1]; median, Day 22 vs day 1",1.18
same,Trough accumulation ratio,"[1]; median, Day 22 vs day 8",1.11
same,Trough,"[1]; median, Day 43 (n = 4)",11.6 ng/mL
same,C max accumulation ratio,"[1]; median, Day 43 vs day 1",0.82
same,Trough accumulation ratio,"[1]; median, Day 43 vs day 8",0.94
same,Trough,"[1]; median, Day 64 (n = 5)",139 ng/mL
same,C max accumulation ratio,"[1]; median, Day 64 vs day 1",0.94
same,Trough accumulation ratio,"[1]; median, Day 64 vs day 8",0.63
same,Inhibition of other protein kinases,other protein kinases,does not significantly inhibit
same,Potency against PI3Kβ,PI3Kβ,less potency
same,Change of pathway targets in tumor tissue,[2],marked decreases
